According to patent publication US20060009487A1, “Heterocyclic derivatives for treatment of hyperlipidemia and related diseases” (priority 2004, published 2006):

melting point [°C] | SMILES
269 | O=C(O)c1cnc2ccccc2c1NCCCNc1ncccn1 [E6, n=2, R=H, 4-[3-(Pyrimidin-2-yl-amino)-propylamino]-quinoline-3-carboxylic acid]
108 | CCOC(=O)c1cnc2ccccc2c1NCCCCCNc1ncccn1 [E6, n=4, R═CH2CH3, 4-[5-(Pyrimidin-2-ylamino)-pentylamino]-quinoline-3-carboxylic acid ethyl ester]

The next lines start with the molecule.

SMILES | melting point [°C]
Cc1nc2ccccc2c(-c2ccccc2)c1CC(NC(=O)CCCC(=O)O)C(=O)NCCCCN (centres unmarked) [D9, 4-[1-(4-Amino-butylcarbamoyl)-2-(2-methyl-4-phenyl-quinolin-3-yl)-ethylcarbamoyl]-butyric acid] | 129
N=C(N)NCCNc1c(C(=O)O)cnc2ccccc12 [E5, n=1, 4-(2-Guanidino-ethylamino)-quinoline-3-carboxylic acid] | 267
Nc1c(C(=O)O)cnc2ccccc12 [F3, 4-Amino-quinoline-3-carboxylic acid] | 305
